Test system: ischemic and reperfused hearts
Assay: Ischemia and reperfusion of the isolated rat heart perfused by the Langendorff method: ventricular total sodium content and recovery in contractile tension
Conditions: for Sodium Content: 45 min ischemia, 30 min reperfusion, atomic absorption; for Recovery in Contractile Tension: at 30 min after reperfusion, relative to tension at beginning of experiment; for increase of ventricular sodium content induced by ischemia and reperfusion (result in words): added in the reperfusion solution
Protocol: The heart of the rat was excised and perfused with Krebs buffer solution (in mM: NaCl 119, KCl 4.6, MgSO4.7H2O 1.2, CaCl2·2H2O 1.3, NaHCO3 25, KH2PO4 1.2, glucose 11; pH 7.4, 37° C.) according to the Langendorff method. A thread was attached to the apex of the heart, and then the end was connected to a tension transducer to determine contractile tension. The preparation was stabilized, and then myocardial ischemia was induced by reducing a perfusion pressure (for 45 minutes). After reperfusion for 30 min, the heart was liquefied in nitric acid, and ventricular total sodium content was determined by atomic absorption analysis. Contractile tension was measured during the experiment, and a recovery rate in the contractile tension at 30 min after the reperfusion, relative to the contractile tension at the beginning of the experiment, was used as an index of cardiac contractility.

| Structure (SMILES) | Sodium Content (10^−3 M) | Recovery in Contractile Tension (10^−3 M) | Sodium Content (10^−4 M) | Recovery in Contractile Tension (10^−4 M) | Sodium Content (10^−5 M) | Recovery in Contractile Tension (10^−5 M) | increase of ventricular sodium content induced by ischemia and reperfusion (result in words) | Sodium Content (10^−6 M in reperfusion solution) | Recovery in Contractile Tension (10^−6 M) | Sodium Content (10^−7 M in reperfusion solution) | Recovery in Contractile Tension (10^−7 M) | Sodium Content (10^−8 M in reperfusion solution) | Recovery in Contractile Tension (10^−8 M) | Sodium Content (10^−9 M in reperfusion solution) | Recovery in Contractile Tension (10^−9 M) |
| --- | --- | --- | --- | --- | --- | --- | --- | --- | --- | --- | --- | --- | --- | --- | --- |
| N=C(N)NC(=O)c1nc(Cl)c(N)nc1N [Amiloride, reference compound] | 64.8 ± 3.7 µmol/g | 59.0 ± 4.7 % | 71.8 ± 3.3 µmol/g | 45.4 ± 3.8% | 77.9 ± 3.9 µmol/g | 33.3 ± 7.2% | no effect | – | – | – | – | – | – | – | – |
| Cc1ccc(N2CCNCC2)c(S(=O)(=O)O)c1.O [MCC-135, 5-methyl-2-(1-piperazinyl)benzenesulfonic acid monohydrate] | – | – | – | – | – | – | suppressed | 59.9 ± 2.3 µmol/g | 79.4 ± 4.7 % | 62.2 ± 0.6 µmol/g | 68.4 ± 3.2 % | 68.7 ± 3.7 µmol/g | 49.1 ± 2.9% | 68.4 ± 6.2 µmol/g | 40.0 ± 4.9% |
